The values that follow come from ChEMBL document CHEMBL1201862, “PubChem BioAssay data set” (2004).

Where a name gives a salt, the structure may show the parent alone.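 Exposure lasted 48 hours, with cells grown in 96-well plates and compounds tested at five concentrations. GI50 marks 50% less growth.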 The source made the active and inactive calls. Rule as the data show it: active = GI50 up to about 1.1 µM and inactive = higher.

Some test systems named below: OVCAR-3; HT-29; SK-MEL-5; KM12; ACHN; OVCAR-4; UACC-257; TK-10; UO-31; HL-60; IGROV-1; HCC 2998; M14; Malme-3M; RPMI-8226; HOP-92.
What all share (test): NCI anticancer screen, dose series, 48 h

Take `Cc1nc2c(n1CCO)C(=O)c1ccccc1C2=O`: the GI50 in the test on OVCAR-3 is 24.3 µM (inactive); with HT-29, 25.9 µM (inactive); with SK-MEL-5, 11.3 µM (inactive); with KM12, 37.7 µM (inactive); in the test with ACHN it was 25.1 µM (inactive); in the test on OVCAR-4 it was 26.2 µM (inactive). The GI50 is 16.6 µM (inactive) with UACC-257; > 100 µM (inactive) in the test on TK-10; > 100 µM (inactive) in the test with UO-31; 19.9 µM (inactive) in the test with HL-60; 20.3 µM (inactive) with IGROV-1; 41.4 µM (inactive) with HCC 2998. For the same compound, the GI50 in the test on M14 is 21.4 µM (inactive); with Malme-3M, 11.8 µM (inactive).
As to `CC(=O)OCC(OC(C)=O)C(OC(C)=O)C(OC(C)=O)C(=O)CNn1c(-c2ccccc2Cl)nc2ccccc2c1=O` (centres undefined), the GI50 in the test on OVCAR-3 is > 100 µM (inactive); in the test with RPMI-8226, 76 µM (inactive); with HT-29, > 100 µM (inactive); with SK-MEL-5, > 100 µM (inactive); in the test with KM12, > 100 µM (inactive); in the test with ACHN it was > 100 µM (inactive). The GI50 with OVCAR-4 is > 100 µM (inactive); in the test on UACC-257 it was > 100 µM (inactive); with UO-31, > 100 µM (inactive); in the test on HL-60 it was 38.5 µM (inactive); in the test with M14, > 100 µM (inactive); in the test on Malme-3M, > 100 µM (inactive).
For the compound `CC(=O)O[C@H]1CCC2[C@@H]3CCC4Nc5[nH]ncc5C[C@]4(C)C3CC[C@@]21C` (some centres undefined), the GI50 was 32.4 µM (inactive) in the test with OVCAR-3; 31.9 µM (inactive) in the test with RPMI-8226; 45.3 µM (inactive) in the test on HT-29; 24.5 µM (inactive) in the test on SK-MEL-5; 64.1 µM (inactive) in the test on KM12; > 100 µM (inactive) in the test on ACHN. Besides, the GI50 was 81.1 µM (inactive) in the test with OVCAR-4; 22.4 µM (inactive) in the test with UACC-257; 74.6 µM (inactive) with TK-10; > 100 µM (inactive) with UO-31; 18.2 µM (inactive) with HL-60; > 100 µM (inactive) in the test on IGROV-1. The figures for the GI50 in the test on HCC 2998, in the test on M14 and in the test on Malme-3M were 30.2 µM (inactive), 21.4 µM (inactive) and 32.7 µM (inactive), respectively.
Regarding `CNC(=O)NCCCCC(NC(C)=O)C(=O)NCc1ccccc1` (centres undefined), the GI50 in the test on OVCAR-3, with RPMI-8226, in the test on HOP-92, in the test on HT-29, in the test on SK-MEL-5 and in the test on KM12 was > 100 µM (inactive) in each case. In addition, the GI50 in the test with ACHN, in the test with OVCAR-4, with UACC-257, in the test on TK-10, in the test on UO-31 and with IGROV-1 was > 100 µM (inactive) throughout. Moreover, the GI50 in the test on HCC 2998, in the test with M14 and in the test on Malme-3M was > 100 µM (inactive) throughout.
With `Cc1[nH]c2ccccc2c1C(=O)CC1(O)C(=O)Nc2ccccc21` (centres undefined), the GI50 in the test on RPMI-8226, in the test with HOP-92, in the test with HT-29, with SK-MEL-5, in the test on KM12 and in the test with ACHN was > 100 µM (inactive) throughout. Further, the GI50 in the test on OVCAR-4, with UACC-257, in the test on TK-10, with UO-31, in the test on HL-60 and with IGROV-1 was > 100 µM (inactive) each time. Moreover, the GI50 with HCC 2998 and in the test on M14 was > 100 µM (inactive) in each case.
For `CCOC(=O)CC(C)C1(C=O)CCCCC1=O` (centres undefined), the GI50 in the test with OVCAR-3 was > 100 µM (inactive); in the test with RPMI-8226, 20.6 µM (inactive); in the test on HT-29, > 10 µM (inactive); in the test with SK-MEL-5, > 100 µM (inactive); in the test with KM12, > 100 µM (inactive); with ACHN it was > 100 µM (inactive). The GI50 in the test on OVCAR-4 is 79.8 µM (inactive); with UACC-257 it was > 100 µM (inactive); in the test with TK-10, > 100 µM (inactive); in the test with UO-31, > 100 µM (inactive); in the test on HL-60, > 100 µM (inactive); with IGROV-1, > 100 µM (inactive). Also, the GI50 in the test with HCC 2998 was > 100 µM (inactive); in the test on M14 it was 29.6 µM (inactive); with Malme-3M, > 100 µM (inactive).
On to `C[n+]1cc(C(O)c2ccc3c(c2)OCO3)c2ccccc2c1` (centres undefined), for which the GI50 in the test with OVCAR-3 was 28.8 µM (inactive); with RPMI-8226 it was 13.9 µM (inactive); in the test on HT-29, 51.2 µM (inactive); in the test with SK-MEL-5, 17.9 µM (inactive); with KM12, 38.3 µM (inactive); with ACHN, 29.1 µM (inactive). Besides, the GI50 in the test with UACC-257 was 18.6 µM (inactive); in the test on TK-10, 36.8 µM (inactive); in the test with UO-31 it was 16.6 µM (inactive); in the test with IGROV-1 it was 47.4 µM (inactive); with HCC 2998, 37.8 µM (inactive); in the test on M14 it was 25.4 µM (inactive). Further, in the test with Malme-3M, the GI50 is 25.4 µM (inactive).
Take `COc1ccc(C(C#N)NNC(=O)c2ccccc2O)cc1OC` (centres undefined): the GI50 in the test with OVCAR-3 is 2.55 µM (inactive); in the test on RPMI-8226, 4.24 µM (inactive); with HT-29, 30.1 µM (inactive); with SK-MEL-5, 8.95 µM (inactive); in the test on KM12 it was 0.807 µM (active); in the test on ACHN it was 0.384 µM (active). The GI50 with OVCAR-4 was 1.7 µM (inactive); in the test on UACC-257, 3.84 µM (inactive); with TK-10 it was 14.6 µM (inactive); with UO-31 it was 0.379 µM (active); in the test on HL-60, 1.76 µM (inactive); in the test with IGROV-1, 0.547 µM (active). Besides, the results for the GI50 in the test with M14 and with Malme-3M were 0.75 µM (active) and 11.7 µM (inactive), respectively.
Consider `CC(NC(C)(C)C)C(=O)c1cccc(Cl)c1` (centres undefined) [BUPROPION HYDROCHLORIDE], for which the GI50 in the test with OVCAR-3, in the test with RPMI-8226, in the test on HT-29, in the test on SK-MEL-5, in the test with KM12 and with ACHN was > 100 µM (inactive) throughout. Besides, the GI50 in the test with OVCAR-4, with UACC-257, in the test on TK-10, with IGROV-1, in the test with HCC 2998 and with M14 was > 100 µM (inactive) in each case. In the test with Malme-3M, the GI50 is > 100 µM (inactive).
`Nc1ccc(C(=O)CC2(O)C(=O)Nc3ccccc32)cc1` (centres undefined): the GI50 in the test on OVCAR-3, in the test on RPMI-8226, in the test on HOP-92, in the test with HT-29, in the test with SK-MEL-5 and in the test with ACHN was > 100 µM (inactive) each time. Also, the GI50 in the test with OVCAR-4 is > 100 µM (inactive); with UACC-257 it was > 100 µM (inactive); in the test with TK-10, > 100 µM (inactive); in the test on UO-31, > 100 µM (inactive); in the test on HL-60, 38.9 µM (inactive); in the test on IGROV-1, > 100 µM (inactive). Moreover, the GI50 with M14 and in the test on Malme-3M was > 100 µM (inactive) throughout.
